Patent US20210009542A1 (Calico Life Sciences LLC, priority 2018, published 2021)
Where two headings read alike, the source gives them in different places.

Legend:
[1] = target: T1, His tagged PTPN2 (TC45) protein (Homo sapiens, UniProt P17706); assay: Mobility shift assay (MSA) for potency of PTPN2 inhibitors; assay type: biochemical; conditions: read-out: PTPN2 MSA IC50
T1 construct: made in house
T1 sequence (P17706 with tags, fused parts or gaps isoform P17706-2): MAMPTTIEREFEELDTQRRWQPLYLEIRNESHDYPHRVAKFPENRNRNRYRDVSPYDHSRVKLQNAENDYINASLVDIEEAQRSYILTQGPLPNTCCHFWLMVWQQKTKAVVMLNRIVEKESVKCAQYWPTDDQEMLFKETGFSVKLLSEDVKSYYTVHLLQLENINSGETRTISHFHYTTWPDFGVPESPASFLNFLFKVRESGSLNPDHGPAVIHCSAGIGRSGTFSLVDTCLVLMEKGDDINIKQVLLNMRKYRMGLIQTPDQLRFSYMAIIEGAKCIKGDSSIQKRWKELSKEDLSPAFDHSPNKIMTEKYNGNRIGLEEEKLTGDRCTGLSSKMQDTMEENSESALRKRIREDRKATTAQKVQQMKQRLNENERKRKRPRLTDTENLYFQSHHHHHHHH
How it was run: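 His-tagged PTPN2 TC45 (0.5 nM) was preincubated with compound (12-point, 1:3) for 10 min at room temperature in 50 mM HEPES pH 7.5, 1 mM EGTA, 10 mM EDTA, 0.01% Tween 20, 2 mM DTT. OG488-labelled phospho-insulin-receptor peptide ([…]) was then added for 10 min. After quenching, dephosphorylation was measured by microfluidic mobility shift and IC50 derived from % inhibition.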

[2] = test system: B16F10 mouse melanoma cells; assay: B16F10 IFNγ-induced cellular growth inhibition assay; assay type: cell-based; conditions: Mus musculus, B16-F10, 33 μM compound
How it was run: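 B16F10 cells (500/well, DMEM + 10% FBS) dosed in triplicate at 100 μM to 0.001 μM (0.1% DMSO) with or without 0.5 ng/mL final mouse IFNγ. Confluence imaged every 6 h for 5 days; % growth inhibition calculated versus DMSO/with-IFNγ control once DMSO/no-IFNγ wells exceeded 95% confluence.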

[3] = +0.5 ng/mL IFNγ, relative to DMSO control, read-out: % B16F10 growth inhibition (+0.5 ng/mL IFNγ) @ 33 μM
[4] = no IFNγ, read-out: % B16F10 growth inhibition (no IFNγ) @ 33 μM

Compound | IC50 [1] [nM] | inhibition at 33 µM [2, 3] [%] | inhibition at 33 µM [2, 4] [%]
O=C1CN(c2c(O)cc3ccc(C4CCS(=O)(=O)CC4)cc3c2F)S(=O)(=O)N1 [Compound 248, 5-[7-(1,1-dioxo-1λ^6-thian-4-yl)-1-fluoro-3-hydroxynaphthalen-2-yl]-1λ^6,2,5-thiadiazolidine-1,1,3-trione] | 1 to 10 | 60 to 90 | < 25
O=C1CN(c2c(O)cc3ccc(OCC4CC4)cc3c2F)S(=O)(=O)N1 [Compound 250, 5-[7-(cyclopropylmethoxy)-1-fluoro-3-hydroxynaphthalen-2-yl]-1λ^6,2,5-thiadiazolidine-1,1,3-trione] | 1 to 10 | 60 to 90 | < 25
O=C1CN(c2c(O)cc3ccc(CC4CCN(CC(F)(F)F)CC4)cc3c2F)S(=O)(=O)N1 [Compound 252, 5-(1-fluoro-3-hydroxy-7-{[1-(2,2,2-trifluoroethyl)piperidin-4-yl]methyl}naphthalen-2-yl)-1λ^6,2,5-thiadiazolidine-1,1,3-trione] | 1 to 10 | 25 to 59 | < 25
O=C1CN(c2c(O)cc3ccc(CC4CN(S(=O)(=O)C5CC5)C4)cc3c2F)S(=O)(=O)N1 [Compound 256, 5-(7-{[1-(cyclopropanesulfonyl)azetidin-3-yl]methyl}-1-fluoro-3-hydroxynaphthalen-2-yl)-1λ^6,2,5-thiadiazolidine-1,1,3-trione] | < 1 | 25 to 59 | < 25
O=C1CN(c2c(O)cc3ccc(C4=CCOCC4)cc3c2F)S(=O)(=O)N1 [Compound 264, 5-[7-(3,6-dihydro-2H-pyran-4-yl)-1-fluoro-3-hydroxynaphthalen-2-yl]-1λ^6,2,5-thiadiazolidine-1,1,3-trione] | 1 to 10 | 60 to 90 | < 25
O=C1CN(c2c(O)cc3ccc(OCC4CCOCC4)cc3c2F)S(=O)(=O)N1 [Compound 273, 5-{1-fluoro-3-hydroxy-7-[(oxan-4-yl)methoxy]naphthalen-2-yl}-1λ^6,2,5-thiadiazolidine-1,1,3-trione] | 1 to 10 | 60 to 90 | < 25
O=C1CN(c2c(O)cc3ccc(OC4COC4)cc3c2F)S(=O)(=O)N1 [Compound 274, 5-{1-fluoro-3-hydroxy-7-[(oxetan-3-yl)oxy]naphthalen-2-yl}-1λ^6,2,5-thiadiazolidine-1,1,3-trione] | 1 to 10 | 60 to 90 | < 25
O=C1CN(c2c(O)cc3ccc(O)cc3c2F)S(=O)(=O)N1 [Compound 276, 5-(1-fluoro-3,7-dihydroxynaphthalen-2-yl)-1λ^6,2,5-thiadiazolidine-1,1,3-trione] | 1 to 10 | 25 to 59 | < 25
O=C1CN(c2c(O)cc3ccc(OCCO)cc3c2F)S(=O)(=O)N1 [Compound 277, 5-[1-fluoro-3-hydroxy-7-(2-hydroxyethoxy)naphthalen-2-yl]-1λ^6,2,5-thiadiazolidine-1,1,3-trione] | 1 to 10 | 60 to 90 | < 25
CCCOc1ccc2cc(O)c(N3CC(=O)NS3(=O)=O)c(F)c2c1 [Compound 278, 5-(1-fluoro-3-hydroxy-7-propoxynaphthalen-2-yl)-1λ^6,2,5-thiadiazolidine-1,1,3-trione] | 1 to 10 | 60 to 90 | < 25
CC(C)Oc1ccc2cc(O)c(N3CC(=O)NS3(=O)=O)c(F)c2c1 [Compound 279, 5-{1-fluoro-3-hydroxy-7-[(propan-2-yl)oxy]naphthalen-2-yl}-1λ^6,2,5-thiadiazolidine-1,1,3-trione] | 1 to 10 | 60 to 90 | < 25
O=C(COc1ccc2cc(O)c(N3CC(=O)NS3(=O)=O)c(F)c2c1)NCCC1CC1 [Compound 281, N-(2-cyclopropylethyl)-2-{[8-fluoro-6-hydroxy-7-(1,1,4-trioxo-1λ^6,2,5-thiadiazolidin-2-yl)naphthalen-2-yl]oxy}acetamide] | 1 to 10 | 25 to 59 | < 25
CCN(CC)C(=O)COc1ccc2cc(O)c(N3CC(=O)NS3(=O)=O)c(F)c2c1 [Compound 282, N,N-diethyl-2-{[8-fluoro-6-hydroxy-7-(1,1,4-trioxo-1λ^6,2,5-thiadiazolidin-2-yl)naphthalen-2-yl]oxy}acetamide] | 1 to 10 | 25 to 59 | < 25
O=C1CN(c2c(O)cc3ccc(OCC(=O)N4CCCC4)cc3c2F)S(=O)(=O)N1 [Compound 283, 5-{1-fluoro-3-hydroxy-7-[2-oxo-2-(pyrrolidin-1-yl)ethoxy]naphthalen-2-yl}-1λ^6,2,5-thiadiazolidine-1,1,3-trione] | 1 to 10 | 25 to 59 | < 25
CCS(=O)(=O)N1CC=C(c2ccc3cc(O)c(N4CC(=O)NS4(=O)=O)c(F)c3c2)C1 [Compound 295, 5-{7-[1-(ethanesulfonyl)-2,5-dihydro-1H-pyrrol-3-yl]-1-fluoro-3-hydroxynaphthalen-2-yl}-1λ^6,2,5-thiadiazolidine-1,1,3-trione] | < 1 | > 90 | < 25
CC(C)S(=O)(=O)N1CC=C(c2ccc3cc(O)c(N4CC(=O)NS4(=O)=O)c(F)c3c2)C1 [Compound 296, 5-{1-fluoro-3-hydroxy-7-[1-(propane-2-sulfonyl)-2,5-dihydro-1H-pyrrol-3-yl]naphthalen-2-yl}-1λ^6,2,5-thiadiazolidine-1,1,3-trione] | < 1 | > 90 | < 25
O=C1CN(c2c(O)cc3ccc(C4=CCN(S(=O)(=O)C5CC5)CC4)cc3c2F)S(=O)(=O)N1 [Compound 297, 5-{7-[1-(cyclopropanesulfonyl)-1,2,3,6-tetrahydropyridin-4-yl]-1-fluoro-3-hydroxynaphthalen-2-yl}-1λ^6,2,5-thiadiazolidine-1,1,3-trione] | 1 to 10 | 25 to 59 | < 25
O=C1CN(c2c(O)cc3ccc(C4CCNCC4)cc3c2F)S(=O)(=O)N1 [Compound 299, 5-[1-fluoro-3-hydroxy-7-(piperidin-4-yl)naphthalen-2-yl]-1λ^6,2,5-thiadiazolidine-1,1,3-trione] | 1 to 10 | > 90 | < 25
CC(C)CS(=O)(=O)N1CC=C(c2ccc3cc(O)c(N4CC(=O)NS4(=O)=O)c(F)c3c2)C1 [Compound 300, 5-{1-fluoro-3-hydroxy-7-[1-(2-methylpropane-1-sulfonyl)-2,5-dihydro-1H-pyrrol-3-yl]naphthalen-2-yl}-1λ^6,2,5-thiadiazolidine-1,1,3-trione] | < 1 | 60 to 90 | < 25
CCOc1ccc2cc(O)c(N3CC(=O)NS3(=O)=O)c(F)c2c1 [Compound 301, 5-(7-ethoxy-1-fluoro-3-hydroxynaphthalen-2-yl)-1λ^6,2,5-thiadiazolidine-1,1,3-trione] | 1 to 10 | 60 to 90 | < 25
O=C1CN(c2c(O)cc3ccc(OCC(F)F)cc3c2F)S(=O)(=O)N1 [Compound 302, 5-[7-(2,2-difluoroethoxy)-1-fluoro-3-hydroxynaphthalen-2-yl]-1λ^6,2,5-thiadiazolidine-1,1,3-trione] | 1 to 10 | 60 to 90 | < 25
O=C1CN(c2c(O)cc3ccc(-c4cnn(S(=O)(=O)C5CC5)c4)cc3c2F)S(=O)(=O)N1 [Compound 303, 5-{7-[1-(cyclopropanesulfonyl)-1H-pyrazol-4-yl]-1-fluoro-3-hydroxynaphthalen-2-yl}-1λ^6,2,5-thiadiazolidine-1,1,3-trione] | < 1 | 60 to 90 | < 25
CS(=O)(=O)N1CC[C@@H](Nc2ccc3cc(O)c(N4CC(=O)NS4(=O)=O)c(F)c3c2)C1 [Compound 304, 5-(1-fluoro-3-hydroxy-7-{[(3R)-1-(methanesulfonyl)pyrrolidin-3-yl]amino}naphthalen-2-yl)-1λ^6,2,5-thiadiazolidine-1,1,3-trione] | 1 to 10 | > 90 | < 25
CS(=O)(=O)N1CCC(Nc2ccc3cc(O)c(N4CC(=O)NS4(=O)=O)c(F)c3c2)CC1 [Compound 305, 5-(1-fluoro-3-hydroxy-7-{[1-(methanesulfonyl)piperidin-4-yl]amino}naphthalen-2-yl)-1λ^6,2,5-thiadiazolidine-1,1,3-trione] | 10 to 100 | 60 to 90 | < 25
